Measured values published in PMC4109837 (2014).

Key:
[1] = test system: NOX-S93 (L-RNA, aptamer, four 2'-deoxyribonucleotides (positions not given; Figure 1)) GCGUGAAUAGCCGUUGAAACGCCUUUAGAGAAGCACUAGCACGC; test: competition in S1PR3 calcium release cell assay; conditions: UltraCHO medium, 20 mM Hepes, 100 nM NOX-S93, 10 nM S1P
[2] = test system: NOX-S93 (L-RNA, aptamer, four 2'-deoxyribonucleotides (positions not given; Figure 1)) GCGUGAAUAGCCGUUGAAACGCCUUUAGAGAAGCACUAGCACGC; test: neutralisation in S1PR3 calcium release cell assay, direct; conditions: UltraCHO medium, 20 mM Hepes

## CCCCCCCCCCCCC/C=C/[C@@H](O)[C@@H](N)CO
[1]; up to 1 μM competitor
  binding: no

## CCCCCCCCCCCCC/C=C/[C@@H](O)[C@H](CO)NC(C)=O
[1]; up to 3 μM competitor
  binding: no

## CCCCCCCCCCCCCCC[C@@H](O)[C@@H](N)COP(=O)(O)O
[2]; 30 nM dihydro-S1P
  binding: yes

## CCCCCCCCCCCC/C=C/[C@@H](O)[C@@H](N)COP(=O)(O)O
[2]; 10 nM C17-S1P
  binding: yes

## CCCCCCCCCCCCC/C=C/[C@@H](O)[C@H](COP(=O)(O)O)NC(=O)CCCCCCCCCCCCCCC
[1]; up to 3 μM competitor
  binding: no

## CCCCCCCCCCCCC/C=C/[C@@H](O)[C@@H](N)COP(=O)([O-])OCC[N+](C)(C)C
[1]; up to 300 nM competitor
  binding: no

## CCCCCCCC/C=C\CCCCCCCC(=O)OC[C@@H](O)COP(=O)(O)O
[2]; 50 nM LPA, no inhibition
  binding: no

## CCCCCCCCCCCCCCC/C=C/[C@@H](O)[C@@H](N)COP(=O)(O)O
[2]; 80 nM C20-S1P
  binding: yes

## CCCCCCCCCCCCC/C=C/[C@@H](O)[C@@H](N)COP(=O)(O)O
[2]; 10 nM S1P
  binding: yes
